Results on two compounds are retold here after US6127519A, “Calcitonin derivatives” (Tsumura & Co., priority 1990, dated 2000).

The test system of the test is calcium concentration in the serum. Briefly: Test 1: reduction of calcium level in serum after tail vein administration to rats. Format: in vivo, rats of the Wistar strain. To be noted: 1 ml/kg tail vein, female Wistar rats. The gist of the method: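 Female Wistar rats, six weeks old, were assigned in groups of 4 and given the test peptides through the tail vein at 1 ml/kg. The peptides were dissolved in 1% aqueous sodium acetate (pH 4,0) containing 0.1% BSA. Blood (0.3 ml) was drawn from the neck vein immediately before dosing and at set times afterward. Serum was separated by centrifuging at 3500 rpm for 20 minutes. Calcium was measured on a TBA-380 analyzer with a Wako o-cpc kit, and the percentage reduction in serum calcium was calculated.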

[1] abbreviates: concentration 830 ng/ml, 0 hour (just before administration).
Where [2] appears, read: concentration 830 ng/ml, 1 hour.
Setting [3] is: concentration 830 ng/ml, 2 hours.
[4] abbreviates: concentration 830 ng/ml, 4 hours.
Setting [5] is: concentration 830 ng/ml, 6 hours.

Bridge positions count the residues as written; N and C are the ends. Peptide text beside a SMILES is read from it.

In the case of `CC[C@H](C)[C@H](NC(=O)[C@H](C)NC(=O)[C@@H](NC(=O)[C@H](CCC(N)=O)NC(=O)[C@@H]1CCCN1C(=O)[C@H](Cc1ccc(O)cc1)NC(=O)[C@@H](NC(=O)[C@H](CCC(N)=O)NC(=O)[C@H](CC(C)C)NC(=O)[C@H](CCCCN)NC(=O)[C@H](Cc1c[nH]cn1)NC(=O)[C@H](CC(C)C)NC(=O)[C@H](CCC(=O)O)NC(=O)[C@H](CCC(N)=O)NC(=O)[C@H](CO)NC(=O)[C@H](CC(C)C)NC(=O)[C@H](CCCCN)NC(=O)CNC(=O)[C@H](CC(C)C)NC(=O)CNC(=O)[C@@H]1CSSC[C@H](N)C(=O)NCC(=O)N[C@@H](CC(N)=O)C(=O)N[C@@H](CC(C)C)C(=O)N[C@@H](CO)C(=O)N[C@@H]([C@@H](C)O)C(=O)N1)[C@@H](C)O)[C@@H](C)O)C(=O)NCC(=O)N[C@H](C(=O)NCC(=O)N[C@@H](C)C(=O)N1CCC[C@H]1C(N)=O)C(C)C` [Peptide No. 9] (H-CGNLSTCGLGKLSQELHKLQTYPQTAIGVGAP-NH2; disulfide 1-7), the “Serum calcium level as percent of pre-dose baseline” value (“Serum calcium level as percent” for short) was determined as 100.0% (concentration 83 ng/ml, 0 hour (just before administration)); 81.0% (concentration 83 ng/ml, 1 hour); 87.5% (concentration 83 ng/ml, 2 hours); 84.0% (concentration 83 ng/ml, 4 hours); 83.2% (concentration 83 ng/ml, 6 hours); 100.0% under setting [1]. Besides, the “Serum calcium level as percent” value reads like this: under setting [2], 72.8%; under setting [3], 78.4%; under setting [4], 86.8%; under setting [5], 82.4%.
On to `CC[C@H](C)[C@H](NC(=O)[C@H](C)NC(=O)[C@@H](NC(=O)[C@H](CCC(N)=O)NC(=O)[C@@H]1CCCN1C(=O)[C@H](Cc1ccc(O)cc1)NC(=O)[C@H](CC(C)C)NC(=O)[C@H](CCCCN)NC(=O)[C@H](Cc1c[nH]cn1)NC(=O)[C@H](CC(C)C)NC(=O)[C@H](CCC(=O)O)NC(=O)[C@H](CCC(N)=O)NC(=O)[C@H](CO)NC(=O)[C@H](CC(C)C)NC(=O)[C@H](CCCCN)NC(=O)CNC(=O)[C@H](CC(C)C)NC(=O)[C@H](CCSC)NC(=O)[C@@H]1CSSC[C@H](N)C(=O)NCC(=O)N[C@@H](CC(N)=O)C(=O)N[C@@H](CC(C)C)C(=O)N[C@@H](CO)C(=O)N[C@@H]([C@@H](C)O)C(=O)N1)[C@@H](C)O)C(=O)NCC(=O)N[C@H](C(=O)NCC(=O)N[C@@H](C)C(=O)N1CCC[C@H]1C(N)=O)C(C)C` [Peptide No. 3] (H-CGNLSTCMLGKLSQELHKLYPQTAIGVGAP-NH2; disulfide 1-7), for which the “Serum calcium level as percent” value is, setting by setting: under setting [1], 100.0%; under setting [2], 97.0%; under setting [3], 94.9%; under setting [4], 86.4%; under setting [5], 89.9%.
